From ChEMBL document CHEMBL4665707, “Lung Protection by Cathepsin C Inhibition: A New Hope for COVID-19 and ARDS?” (J Med Chem, 2020)

Experiments:
Dipeptidyl peptidase 1 = Dipeptidyl peptidase 1 (Homo sapiens, UniProt P53634); test: Inhibition of human cathepsin C
[1] = Reduction in whole blood neutrophil elastase activity in healthy human subjects at 10 mg dosed daily via oral route; format: functional
[2] = Reduction in whole blood neutrophil elastase activity in healthy human subjects at 40 mg dosed daily via oral route; format: functional
[3] = Reduction in whole blood neutrophil elastase activity in healthy human subjects at 25 mg dosed daily via oral route; format: functional

Dipeptidyl peptidase 1, sequence (P53634 25-134 limits assumed): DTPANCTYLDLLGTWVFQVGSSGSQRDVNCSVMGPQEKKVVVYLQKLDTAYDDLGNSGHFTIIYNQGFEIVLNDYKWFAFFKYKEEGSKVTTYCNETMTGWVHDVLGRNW
Dipeptidyl peptidase 1, sequence (P53634 231-394 limits assumed): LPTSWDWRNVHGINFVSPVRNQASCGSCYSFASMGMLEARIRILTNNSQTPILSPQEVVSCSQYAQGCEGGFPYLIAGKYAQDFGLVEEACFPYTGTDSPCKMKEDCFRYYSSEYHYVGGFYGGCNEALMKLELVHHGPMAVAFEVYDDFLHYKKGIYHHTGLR
Dipeptidyl peptidase 1, sequence (P53634 395-463 limits assumed): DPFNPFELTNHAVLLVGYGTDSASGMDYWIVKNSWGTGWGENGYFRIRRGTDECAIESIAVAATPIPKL

| Structure (SMILES) | IC50 (Dipeptidyl peptidase 1) | inhibition (INH) [1] | inhibition (INH) [2] | inhibition (INH) [3] |
| --- | --- | --- | --- | --- |
| CC[C@H](N)C(=O)N[C@]1(C#N)C[C@@H]1c1ccc(-c2ccc(S(=O)(=O)N3CCN(C)CC3)cc2)cc1 | 15 nM | – | – | – |
| Cn1c(=O)oc2ccc(-c3ccc(C[C@@H](C#N)NC(=O)[C@@H]4CNCCCO4)cc3)cc21 [BRENSOCATIB] | – | 30% | 59% | 49% |
